Values of other authors in patent US20070275095A1, “TREATMENT OF INFLAMMATORY, AUTOIMMUNE, OR OTHER DISORDERS, USING AGENTS THAT REDUCE THE SEQUESTERING OF ZINC BY CALPROTECTIN” (priority 2005, published 2007).

Columns and labels:
neutrophil cells = conditions: Oyama et al 1997
calprotectin [1] = conditions: Oyama et al 1997
[2] = system: tumor necrosis factor (TNF); conditions: same literature reports
calprotectin [3] = conditions: zinc binding not measured directly; apoptosis measured (Yui et al 1998 and 2003, Mikami et al 1999)
[4] = clinical trials reviewed in Kidd 2002, Kern et al 2004, Esch et al 2004, Sturmey 2005

CC(C)c1ccc2oc3nc(N)c(C(=O)O)cc3c(=O)c2c1 [amlexanox]
suppression of calprotectin release by neutrophils (neutrophil cells): impedes and suppresses the release of calprotectin by the neutrophils | binding to calprotectin molecules in neutrophils (calprotectin [1]): bind to calprotectin molecules contained in the neutrophils

O=C1N[C@@H]2C(=C[C@H](O)[C@@H](O)[C@H]2O)c2cc3c(c(O)c21)OCO3 [lycoricidinol]
inhibition of tumor necrosis factor (TNF) [2]: appear to inhibit | inhibition of zinc binding by calprotectin (calprotectin [3]): appear to inhibit zinc binding by calprotectin, to some extent

O[C@H]1[C@H]2c3cc4c(cc3CN3CCC(=C[C@@H]1O)[C@H]23)OCO4 [lycorine]
inhibition of tumor necrosis factor (TNF) [2]: appear to inhibit | inhibition of zinc binding by calprotectin (calprotectin [3]): appear to inhibit zinc binding by calprotectin, to some extent

secretin
clinical trial outcome in autism [4]: mainly negative results
